Measured values from patent US10301267B2, “Compounds” (AstraZeneca AB, priority 2006, dated 2019).
Structures can show the parent of a compound that is named as a salt.

molecular target: FGFR1 active kinase (Homo sapiens, UniProt P11362); assay: FGFR Kinase assay - Caliper; type: biochemical; conditions: FGFR1 […], 408 uM ATP; mean of n as printed; read-out: FGFR Kinase assay - Caliper, IC50; also: 408 µM ATP
Protocol: FGFR Kinase Assay—Caliper
To determine inhibition of FGFR activity, kinase assays were conducted using Caliper technology.
Kinase activity assays were performed in Greiner 384-well low volume plates, with a total reaction volume of 12 ul per well. Final concentration of FGFR1 active kinase in each reaction well was 7.2 nM. The substrate for each assay was a custom peptide with fluorescent tag (13 amino acids in length, […] with the fluorescene tag on the first K).
Compounds were serially diluted in 5% (v/v) DMSO, before being added to assay plates. The Enzyme (at 7.2 nM [final]) and Substrate (at 3.6 uM [final]) were added separately to the compound plates, in reaction buffer [comprising: 50 mM MOPS (Sigma, Catalogue No. M1254)—pH 6.5, 0.004% Triton (Sigma, Catalogue No. X-100), 2.4 mM DTT, 12 mM MgCl2, 408 uM ATP] resulting in a final DMSO concentration in the reaction mix of 0.8%.
Assay plates were incubated at room temperature for 1.5 h, before the reaction was stopped with the addition of buffer [comprising: 100 mM HEPES—pH7.5, 0.033% Brij-35 (Sigma Catalogue No. B4184), 0.22% Caliper Coating Reagent #3 (Caliper Life Sciences Catalogue No. 760050), 88 mM EDTA, 5% DMSO]. Stopped assay plates were then read using the Caliper LabChip® LC3000 (which uses microfludics to measure a shift in mobility between fluorescent labelled peptide and the FGFR1 kinase—phosphorylated form of this peptide).
In the assay, compounds were tested at a range of concentrations.
Percentage inhibition at 1 uM, as expressed herein, is a calculated value based on the curve fit that was generated experimentally. From the fitted curve plot, the effect of compound at a concentration of 1 uM was calculated as a percentage inhibition. The IC50 is the concentration of compound, which inhibits FGFR1 kinase activity by 50% in the context of this assay.

Sequence of FGFR1 active kinase (P11362 22-822): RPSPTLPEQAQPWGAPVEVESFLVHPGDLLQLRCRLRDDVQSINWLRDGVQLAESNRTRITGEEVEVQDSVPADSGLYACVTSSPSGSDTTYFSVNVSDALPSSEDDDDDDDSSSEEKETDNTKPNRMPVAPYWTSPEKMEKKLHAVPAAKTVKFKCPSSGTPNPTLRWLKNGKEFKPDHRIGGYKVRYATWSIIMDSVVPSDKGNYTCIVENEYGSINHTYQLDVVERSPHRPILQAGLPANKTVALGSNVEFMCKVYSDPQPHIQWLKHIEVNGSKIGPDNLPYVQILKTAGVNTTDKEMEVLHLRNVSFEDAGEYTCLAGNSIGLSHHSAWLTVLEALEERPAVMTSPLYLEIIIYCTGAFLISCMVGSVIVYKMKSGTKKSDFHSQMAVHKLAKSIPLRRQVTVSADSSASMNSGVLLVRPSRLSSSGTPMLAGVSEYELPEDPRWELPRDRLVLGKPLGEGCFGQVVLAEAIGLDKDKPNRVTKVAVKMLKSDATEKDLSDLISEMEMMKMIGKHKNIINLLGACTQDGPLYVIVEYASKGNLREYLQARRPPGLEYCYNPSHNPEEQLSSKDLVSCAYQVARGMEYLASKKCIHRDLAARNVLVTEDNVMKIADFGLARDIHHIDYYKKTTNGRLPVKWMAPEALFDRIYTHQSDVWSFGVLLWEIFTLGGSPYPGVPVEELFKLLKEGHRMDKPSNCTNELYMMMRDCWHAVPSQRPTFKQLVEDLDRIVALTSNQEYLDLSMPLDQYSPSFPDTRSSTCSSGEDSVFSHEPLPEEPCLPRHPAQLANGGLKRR

Row | SMILES | IC50
1 | COc1cc(CCc2cc(NC(=O)c3ccc(OCCO)cc3)n[nH]2)cc(OC)c1 [Example 48, N-[5-[2-(3,5-Dimethoxyphenyl)ethyl]-1H-pyrazol-3-yl]-4-(2-hydroxyethoxy)benzamide] | 39 nM
2 | COc1cccc(CCc2cc(NC(=O)c3ccc(Nc4ccccc4)nc3)[nH]n2)c1 [Example 26, 6-Anilino-N-[5-[2-(3-methoxyphenyl)ethyl]-2H-pyrazol-3-yl]pyridine-3-carboxamide] | 64000 nM
3 | COc1cc(CCc2cc(NC(=O)c3ccc(N4CCN(C(C)C)CC4)cc3)n[nH]2)cc(OC)c1 [Example 87, N-[5-[2-(3,5-Dimethoxyphenyl)ethyl]-1H-pyrazol-3-yl]-4-(4-propan-2-ylpiperazin-1-yl)benzamide] | 0.4 nM
4 | COc1cccc(CCc2cc(NC(=O)c3ccc(N4CCN(S(C)(=O)=O)CC4)cc3)n[nH]2)c1 [Example 91, N-[5-[2-(3-Methoxyphenyl)ethyl]-1H-pyrazol-3-yl]-4-(4-methylsulfonylpiperazin-1-yl)benzamide] | 250 nM
5 | CN(C)Cc1ccc(CCc2cc(NC(=O)c3ccc(N4CCN(C)CC4)cc3)n[nH]2)o1 [Example 76, N-[5-[2-[5-(Dimethylaminomethyl)-2-furyl]ethyl]-1H-pyrazol-3-yl]-4-(4-methylpiperazin-1-yl)benzamide] | 340 nM
6 | COc1cc(CCc2cc(NC(=O)c3ccc(OCCN4CCOCC4)cc3)n[nH]2)cc(OC)c1 [Example 54, N-[5-[2-(3,5-Dimethoxyphenyl)ethyl]-1H-pyrazol-3-yl]-4-(2-morpholin-4-ylethoxy)benzamide] | 96 nM
7 | COc1cccc(CCc2cc(NC(=O)c3ccc(O)nc3)[nH]n2)c1 [Example 31, 6-Hydroxy-N-[5-[2-(3-methoxyphenyl)ethyl]-2H-pyrazol-3-yl]pyridine-3-carboxamide] | 1050 nM
8 | COc1ccc(CCc2cc(NC(=O)c3ccc(N4CCN(C)CC4)cc3)[nH]n2)c(C)c1 [Example 79, N-[5-[2-(4-Methoxy-2-methyl-phenyl)ethyl]-2H-pyrazol-3-yl]-4-(4-methylpiperazin-1-yl)benzamide] | 200 nM
9 | COc1cccc(CCc2cc(NC(=O)c3ccc(-n4cccn4)cc3)[nH]n2)c1 [Example 25, N-[5-[2-(3-Methoxyphenyl)ethyl]-2H-pyrazol-3-yl]-4-pyrazol-1-yl-benzamide] | 940 nM
10 | COc1cccc(CCc2cc(NC(=O)c3ccc(C#N)cc3)[nH]n2)c1 [Example 23, 4-Cyano-N-[5-[2-(3-methoxyphenyl)ethyl]-2H-pyrazol-3-yl]benzamide] | 28600 nM
11 | COc1cccc(CCc2cc(NC(=O)c3ccc(C(=O)O)nc3)[nH]n2)c1 [Example 66, 5-[[5-[2-(3-Methoxyphenyl)ethyl]-2H-pyrazol-3-yl]carbamoyl]pyridine-2-carboxylic Acid] | 1020 nM
12 | COc1cccc(CCc2cc(NC(=O)c3ccc(Cl)nc3)[nH]n2)c1 [Example 62, 6-Chloro-N-[5-[2-(3-methoxyphenyl)ethyl]-2H-pyrazol-3-yl]pyridine-3-carboxamide] | 4540 nM
13 | COc1cc(CCc2cc(NC(=O)c3ccc(N4CCN(C)CC4)nn3)[nH]n2)cc(OC)c1 [Example 84, N-[5-[2-(3,5-Dimethoxyphenyl)ethyl]-2H-pyrazol-3-yl]-6-(4-methylpiperazin-1-yl)pyridazine-3-carboxamide] | 390 nM
14 | COc1cccc(CCc2cc(NC(=O)c3ccc(NC=O)cn3)[nH]n2)c1 [Example 29, 5-Formamido-N-[5-[2-(3-methoxyphenyl)ethyl]-2H-pyrazol-3-yl]pyridine-2-carboxamide] | 870 nM
15 | COc1cc(COc2cc(NC(=O)c3cnc(N4CCN(C)CC4)nc3)n[nH]2)cc(OC)c1 [Example 73, N-[5-[(3,5-Dimethoxyphenyl)methoxy]-1H-pyrazol-3-yl]-2-(4-methylpiperazin-1-yl)pyrimidine-5-carboxamide] | 44 nM
16 | COc1cc(CCc2cc(NC(=O)c3ccc(N4CCN(C5CCC5)CC4)cc3)n[nH]2)cc(OC)c1 [Example 89, 4-(4-Cyclobutylpiperazin-1-yl)-N-[5-[2-(3,5-dimethoxyphenyl)ethyl]-1H-pyrazol-3-yl]benzamide] | 9 nM
17 | COc1cc(COc2cc(NC(=O)c3ccc(N4CCNCC4)nc3)[nH]n2)cc(OC)c1 [Example 72, N-[5-[(3,5-Dimethoxyphenyl)methoxy]-2H-pyrazol-3-yl]-6-piperazin-1-yl-pyridine-3-carboxamide] | 25 nM

Row | SMILES | IC50
18 | COc1cc(CCc2cc(NC(=O)c3ccc(N(C)C)cc3)n[nH]2)cc(OC)c1 [Example 59, N-[5-[2-(3,5-Dimethoxyphenyl)ethyl]-1H-pyrazol-3-yl]-4-dimethylamino-benzamide] | 134 nM
19 | COc1cc(CCc2cc(NC(=O)c3ccc(CN(C)C)cc3)n[nH]2)cc(OC)c1 [Example 47, N-[5-[2-(3,5-Dimethoxyphenyl)ethyl]-1H-pyrazol-3-yl]-4-(dimethylaminomethyl)benzamide] | 19 nM
20 | COc1cc(CCc2cc(NC(=O)c3ccccc3NCc3cc(C)no3)n[nH]2)cc(OC)c1 [Example 83, N-[5-[2-(3,5-Dimethoxyphenyl)ethyl]-1H-pyrazol-3-yl]-2-[(3-methyl-1,2-oxazol-5-yl)methylamino]benzamide] | 1000 nM
21 | COc1cccc(CCc2cc(NC(=O)c3ccc(S(=O)(=O)N(C)C)cc3)[nH]n2)c1 [Example 30, 4-(Dimethylsulfamoyl)-N-[5-[2-(3-methoxyphenyl)ethyl]-2H-pyrazol-3-yl]benzamide] | 800 nM
22 | COc1cc(CCc2cc(NC(=O)c3ccc(CN4CCCC(C)(C)C4)cc3)n[nH]2)cc(OC)c1 [Example 50, N-[5-[2-(3,5-Dimethoxyphenyl)ethyl]-1H-pyrazol-3-yl]-4-[(3,3-dimethyl-1-piperidyl)methyl]benzamide] | 1 nM
23 | CN1CCN(c2ccc(C(=O)Nc3cc(CCc4ccc5c(c4)OCO5)n[nH]3)cc2)CC1 [Example 77, N-[5-(2-Benzo[1,3]dioxol-5-ylethyl)-2H-pyrazol-3-yl]-4-(4-methylpiperazin-1-yl)benzamide] | 140 nM
24 | COc1cc(CCc2cc(NC(=O)c3ccc(C4CCNCC4)cc3)n[nH]2)cc(OC)c1 [Example 58, N-[5-[2-(3,5-Dimethoxyphenyl)ethyl]-1H-pyrazol-3-yl]-4-(4-piperidyl)benzamide] | 1 nM
25 | CCOCCOc1ccc(C(=O)Nc2cc(CCc3cc(OC)cc(OC)c3)[nH]n2)cc1 [Example 42, N-[5-[2-(3,5-Dimethoxyphenyl)ethyl]-1H-pyrazol-3-yl]-4-(2-ethoxyethoxy)benzamide] | 75 nM
26 | COc1cc(CCc2cc(NC(=O)c3ccc(CN4CCCC(F)C4)cc3)n[nH]2)cc(OC)c1 (stereo not shown) [Example 53, N-[5-[2-(3,5-Dimethoxyphenyl)ethyl]-1H-pyrazol-3-yl]-4-[(3-fluoro-1-piperidyl)methyl]benzamide] | 90 nM
27 | COc1cc(CCc2cc(NC(=O)c3cccc(OC)c3)n[nH]2)cc(OC)c1 [Example 39, N-[5-[2-(3,5-Dimethoxyphenyl)ethyl]-1H-pyrazol-3-yl]-3-methoxy-benzamide] | 370 nM
28 | COc1cc(COc2cc(NC(=O)c3ccc(NCCN(C)C)cc3)[nH]n2)cc(OC)c1 [Example 70, N-[5-[(3,5-Dimethoxyphenyl)methoxy]-2H-pyrazol-3-yl]-4-(2-dimethylaminoethylamino)benzamide Hydrochloride] | 31 nM
29 | COc1cccc(CCc2cc(NC(=O)c3ccc(CO)cc3)[nH]n2)c1 [Example 28, 4-(Hydroxymethyl)-N-[5-[2-(3-methoxyphenyl)ethyl]-2H-pyrazol-3-yl]benzamide] | 74 nM
30 | COc1cc(CCc2cc(NC(=O)c3ccc(N4CCNCC4)s3)n[nH]2)cc(OC)c1 [Example 60, N-[5-[2-(3,5-Dimethoxyphenyl)ethyl]-1H-pyrazol-3-yl]-5-piperazin-1-yl-thiophene-2-carboxamide (2,2,2-trifluoroacetic Acid Salt)] | 22 nM
31 | COc1cc(CCc2cc(NC(=O)c3cccc(N4CCOCC4)c3)n[nH]2)cc(OC)c1 [Example 40, N-[5-[2-(3,5-Dimethoxyphenyl)ethyl]-1H-pyrazol-3-yl]-3-morpholin-4-yl-benzamide] | 710 nM
32 | COC(=O)c1ccc(C(=O)Nc2cc(CCc3cccc(OC)c3)n[nH]2)cn1 [Example 67, Methyl 5-[[5-[2-(3-methoxyphenyl)ethyl]-2H-pyrazol-3-yl]carbamoyl]pyridine-2-carboxylate] | 2860 nM
33 | COc1cccc(CCc2cc(NC(=O)c3ccc(N4CCOCC4)nc3)[nH]n2)c1 [Example 32, N-[5-[2-(3-Methoxyphenyl)ethyl]-2H-pyrazol-3-yl]-6-morpholin-4-yl-pyridine-3-carboxamide] | 27 nM
34 | COc1ccc(C(=O)Nc2cc(OCc3cc(OC)cc(OC)c3)n[nH]2)cc1 [Example 71, N-[5-[(3,5-Dimethoxyphenyl)methoxy]-2H-pyrazol-3-yl]-4-methoxy-benzamide] | 157 nM
